Measured values taken from patent US20250100988A1, “PREPARATION OF A COMPOUND FOR THE TREATMENT OF GOUT OR HYPERURICEMIA” (Arthrosi Therapeutics, Inc., priority 2021, published 2025).

Experiment: Solubility of test articles in HBSS assay buffer
Conditions: at all tested concentrations; highest tested concentration 10 μM
Protocol: Before the experiment, the medium was removed and the cells were washed twice with 100 μL of HBSS without Cl^−. Uptake experiments were carried out at 37±1° C. in 50 μL of HBSS without Cl^−, pH 7.4 containing the probe substrate (20 μM uric acid) and the test article (TA) or solvent.

SMILES | solubility in HBSS buffer
CCc1oc2ccccc2c1C(=O)c1cc(Br)c(O)c(Br)c1 [Benzbromarone] | soluble
[2H]c1c([2H])c([2H])c2c(C(=O)c3cc(Br)c(O)c(Br)c3)c(C(C)O)oc2c1[2H] (centres unmarked) [Compound 1, (3,5-dibromo-4-hydroxyphenyl)(2-(1-hydroxyethyl)benzofuran-3-yl-4,5,6,7-d4)methanone] | soluble
